From US10689377B2 (Mirati Therapeutics, Inc., priority 2017, dated 2020)
Where two headings read alike, the source gives them in different places.

What was measured:
[1] = biological target: KRas G12C (Homo sapiens, UniProt P01116, C118S/C51S/C80L/G12C); test: KRas G12C Modification Assay (LCMS detection of covalent adduct); format: binding
Method: A 10 μL aliquot of each protein solution was then transferred to a 384 well microtiter plate. Initial compound stocks were generated at fifty times their desired final assay concentration in DMSO.
Exemplary compounds of Formula (I) were diluted 25-fold into K-Ras Assay Buffer to a final of two times their final concentration. A 10 μL aliquot of each diluted compound solution was then added to each of the protein solutions in the microtiter plate to initiate reaction. […] At each time point, the reactions were quenched with 20 μL of a 25 mM acetic acid solution. […] Once all reactions were quenched, the plates were heat sealed and the samples were injected into a LC/MS system for data acquisition.
Samples were injected in their liquid phase onto a C-3 reverse phase column to remove assay buffer and prepare the samples for mass spectrometer. The proteins were eluted from the column using an acetonitrile gradient and fed directly into the mass analyzer. Initial raw data analysis took place in Agilent MassHunter software immediately post data acquisition.
Raw data analysis of the intact protein was exclusively a deconvolution of the multiple charge states of each protein in solution using a maximum entropy deconvolution provided in Mass Hunter. To minimize complexity, only the data over limited mass ranges were considered for analysis, with a minimum of one Dalton mass step intervals. The heights of all masses identified during raw data analysis were exported to be further analyzed in Spotfire® data analysis software.
Final data analysis was a multistep process in the Spotfire® data analysis software package. Briefly, each protein mass was calculated as a percent of the total signal of that sample, that percentage was then normalized to the percentage of signal of the protein in the absence of reactive compounds. Those normalized signals were reported as normalized percent of control (POC). […] Key: “A”≤25% POC; “B”>25% POC-≤50% POC; “C”>50% POC and ND=not determined.

[2] = biological target: KRas G12C (Homo sapiens, UniProt P01116, G12C); test: Cellular inhibition of KRas G12C measured by Phospho-ERK in NCI-H358 cells; format: cell-based; settings: pERK(Thr202/Tyr204) normalized with GAPDH, NCI-H358 cells, 3 hours
Summary of the method: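 Readout is pERK(Thr202/Tyr204) immunofluorescence normalized to GAPDH, expressed as percent of DMSO control and fitted with a 4-parameter curve for IC50. Attached NCI-H358 cells received compound for 3 hours in 0.5% DMSO, followed by fixation and methanol permeabilization.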

[3] = normalized percent of control, 5 μM concentration for 3 hours

SMILES | POC [1, 3] | IC50 ([2]; read-out: IC50) [nM] | IC50 [2] [nM] | POC ([1]; 5 µM)
C=CC(=O)N1CCN(c2nc(OC[C@@H]3CCCN3C)nc3c2CCN(c2c(F)c(O)cc4ccccc24)C3)CC1 [Example 249, 1-[4-[7-(2-fluoro-3-hydroxy-1-naphthyl)-2-[[(2S)-1-methylpyrrolidin-2-yl]methoxy]-6,8-dihydro-5H-pyrido[3,4-d]pyrimidin-4-yl]piperazin-1-yl]prop-2-en-1-one] | C (“C”>50% POC) | 0.1 to 1000 | – | –
C=CC(=O)N1CCN(c2nc(OC[C@]3(C)CCCN3C)nc3c2CCN(c2cccc4ccccc24)C3)CC1CC#N (stereo partly drawn) [Example 251, 2-(1-acryloyl-4-(2-(((S)-1,2-dimethylpyrrolidin-2-yl)methoxy)-7-(naphthalen-1-yl)-5,6,7,8-tetrahydropyrido[3,4-d]pyrimidin-4-yl)piperazin-2-yl)acetonitrile] | C (“C”>50% POC) | – | 0.1 to 1000 | –
C=CC(=O)N1CCN(c2nc(OC[C@@H]3CCCN3C(C)C)nc3c2CCN(c2cccc4ccccc24)C3)CC1CC#N (stereo partly drawn) [Example 252, 2-[4-[2-[[(2S)-1-isopropylpyrrolidin-2-yl]methoxy]-7-(1-naphthyl)-6,8-dihydro-5H-pyrido[3,4-d]pyrimidin-4-yl]-1-prop-2-enoyl-piperazin-2-yl]acetonitrile] | C (“C”>50% POC) | 0.1 to 1000 | – | –
C=CC(=O)N1CCN(c2nc(OC[C@H]3CCCN3C)nc3c2CCN(c2cccc4ccccc24)C3)C[C@@H]1CC#N [Example 267, 2-((S)-1-acryloyl-4-(2-(((R)-1-methylpyrrolidin-2-yl)methoxy)-7-(naphthalen-1-yl)-5,6,7,8-tetrahydropyrido[3,4-d]pyrimidin-4-yl)piperazin-2-yl)acetonitrile] | – | 0.1 to 1000 | – | C (key: “A”≤25% POC; “B”>25% POC-≤50% POC; “C”>50% POC)
C=CC(=O)N1CCN(c2nc(OC[C@@H]3CCCN3C)nc3c2CCN(c2ncccc2C(F)(F)F)C3)CC1CC#N (stereo partly drawn) [Example 373, 2-(1-acryloyl-4-(2-(((S)-1-methylpyrrolidin-2-yl)methoxy)-7-(3-(trifluoromethyl)pyridin-2-yl)-5,6,7,8-tetrahydropyrido[3,4-d]pyrimidin-4-yl)piperazin-2-yl)acetonitrile] | C (“C”>50% POC) | > 1000 | – | –
Cc1cccc(N2CCc3c(nc(OC[C@@H]4CCCN4C)nc3N3CCN(C(=O)C4=CCC4)[C@@H](CC#N)C3)C2)c1C [Example 392, 2-((S)-1-(cyclobut-1-ene-1-carbonyl)-4-(7-(2,3-dimethylphenyl)-2-(((S)-1-methylpyrrolidin-2-yl)methoxy)-5,6,7,8-tetrahydropyrido[3,4-d]pyrimidin-4-yl)piperazin-2-yl)acetonitrile] | C (“C”>50% POC) | > 1000 | – | –
C=CC(=O)N1CCN(c2nc(OC[C@H]3CCN(C)C3)nc3c2CCN(c2cccc4ccccc24)C3)CC1CC#N (stereo partly drawn) [Example 399, 2-(1-acryloyl-4-(2-(((S)-1-methylpyrrolidin-3-yl)methoxy)-7-(naphthalen-1-yl)-5,6,7,8-tetrahydropyrido[3,4-d]pyrimidin-4-yl)piperazin-2-yl)acetonitrile] | C (“C”>50% POC) | 0.1 to 1000 | – | –
C=CC(=O)N1CCN(c2nc(OC[C@@H]3CCCN3C)nc3c2CCN(c2cccc4c2OCC4)C3)C[C@@H]1CC#N [Example 435, 2-((S)-1-acryloyl-4-(7-(2,3-dihydrobenzofuran-7-yl)-2-(((S)-1-methylpyrrolidin-2-yl)methoxy)-5,6,7,8-tetrahydropyrido[3,4-d]pyrimidin-4-yl)piperazin-2-yl)acetonitrile] | C (“C”>50% POC) | 0.1 to 1000 | – | –
C=CC(=O)N1CCN(c2nc(OC[C@@H]3CCCN3C)nc3c2CCN(c2c(C)c(C)cc4[nH]c(=O)[nH]c24)C3)CC1 [Example 456, 5,6-dimethyl-4-[2-[[(2S)-1-methylpyrrolidin-2-yl]methoxy]-4-(4-prop-2-enoylpiperazin-1-yl)-6,8-dihydro-5H-pyrido[3,4-d]pyrimidin-7-yl]-1,3-dihydrobenzimidazol-2-one] | C (“C”>50% POC) | > 1000 | – | –
